Experimental data taken from patent publication US20170189504A1, “NOVEL PEPTIDES AND COMBINATION OF PEPTIDES FOR USE IN IMMUNOTHERAPY AGAINST VARIOUS CANCERS” (immatics biotechnologies GmbH, priority 2015, published 2017).

System: HLA-A*02
Test: MHC binding assay, UV-ligand exchange with β2m ELISA, HLA-A*02 (Table 20)
Set-up: species or system human
Conditions: binding to HLA-A*02 ranged by peptide exchange yield (UV-ligand exchange, β2m ELISA)
Text: Candidate peptides for T cell based therapies according to the present invention were further tested for their MHC binding capacity (affinity). The individual peptide-MHC complexes were produced by UV-ligand exchange, where a UV-sensitive peptide is cleaved upon UV-irradiation, and exchanged with the peptide of interest as analyzed. Only peptide candidates that can effectively bind and stabilize the peptide-receptive MHC molecules prevent dissociation of the MHC complexes. To determine the yield of the exchange reaction, an ELISA was performed based on the detection of the light chain ((β2m) of stabilized MHC complexes. The assay was performed as generally described in Rodenko et al. (Rodenko et al., 2006).
96 well MAXISorp plates (NUNC) were coated over night with 2 ug/ml streptavidin in PBS at room temperature, washed 4× and blocked for 1 h at 37° C. in 2% BSA containing blocking buffer. Refolded HLA-A*02:01/MLA-001 monomers served as standards, covering the range of 15-500 ng/ml. Peptide-MHC monomers of the UV-exchange reaction were diluted 100 fold in blocking buffer. Samples were incubated for 1 h at 37° C., washed four times, incubated with 2 ug/ml HRP conjugated anti-β2m for 1 h at 37° C., washed again and detected with TMB solution that is stopped with […]. Absorption was measured at 450 nm. Candidate peptides that show a high exchange yield (preferably higher than 50%, most preferred higher than 75%) are generally preferred for a generation and production of antibodies or fragments thereof, and/or T cell receptors or fragments thereof, as they show sufficient avidity to the MHC molecules and prevent dissociation of the MHC complexes.

Substance | Peptide exchange
3 (KLEENGDLYL; listed as Homo sapiens) [compound 3] | ++++ (≧75% = ++++)
9 (FLVDGSYSI; listed as Homo sapiens) [compound 9] | +++ (50%-75% = +++)
10 (GIAGSLKTV; listed as Homo sapiens) [compound 10] | +++ (50%-75% = +++)
13 (ALMAMLVYV; listed as Homo sapiens) [compound 13] | ++ (20%-49% = ++)
15 (YLDLSHNQL; listed as Homo sapiens) [compound 15] | +++ (50%-75% = +++)
16 (YTLDIPVLFGV; listed as Homo sapiens) [compound 16] | ++++ (≧75% = ++++)
19 (SISDNVWEV; listed as Homo sapiens) [compound 19] | +++ (50%-75% = +++)
21 (AIQDEIRSV; listed as Homo sapiens) [compound 21] | +++ (50%-75% = +++)
22 (FVDPNTQEKV; listed as Homo sapiens) [compound 22] | ++ (20%-49% = ++)
24 (TLDEKVAEL; listed as Homo sapiens) [compound 24] | +++ (50%-75% = +++)
25 (TMDSVLVTV; listed as Homo sapiens) [compound 25] | +++ (50%-75% = +++)
28 (SLPNGKPVSV; listed as Homo sapiens) [compound 28] | +++ (50%-75% = +++)
30 (AMIEEVFEA; listed as Homo sapiens) [compound 30] | ++ (20%-49% = ++)
32 (VQLDSIEDLEV; listed as Homo sapiens) [compound 32] | +++ (50%-75% = +++)
33 (YIKTELISV; listed as Homo sapiens) [compound 33] | +++ (50%-75% = +++)
34 (FLLATEVVTV; listed as Homo sapiens) [compound 34] | ++++ (≧75% = ++++)
36 (SLADTNSLAVV; listed as Homo sapiens) [compound 36] | +++ (50%-75% = +++)
37 (ILAPFSVDL; listed as Homo sapiens) [compound 37] | +++ (50%-75% = +++)
38 (FLGPRIIGL; listed as Homo sapiens) [compound 38] | +++ (50%-75% = +++)
39 (HLLEGSVGV; listed as Homo sapiens) [compound 39] | +++ (50%-75% = +++)
40 (VLIDPQWVLTA; listed as Homo sapiens) [compound 40] | +++ (50%-75% = +++)
41 (ALFENTPKA; listed as Homo sapiens) [compound 41] | ++ (20%-49% = ++)
42 (LLDSVSRL; listed as Homo sapiens) [compound 42] | + (<20% = +)
44 (SLFETAWEA; listed as Homo sapiens) [compound 44] | +++ (50%-75% = +++)
45 (SLTEVSLPL; listed as Homo sapiens) [compound 45] | +++ (50%-75% = +++)
46 (SQFPLPLAV; listed as Homo sapiens) [compound 46] | ++ (20%-49% = ++)

Other lines, results leading:

Peptide exchange | Substance
+++ (50%-75% = +++) | 47 (ALLERGELFV; listed as Homo sapiens) [compound 47]
++ (20%-49% = ++) | 48 (QVIEDSTGV; listed as Homo sapiens) [compound 48]
+++ (50%-75% = +++) | 49 (ALNIATHVL; listed as Homo sapiens) [compound 49]
+++ (50%-75% = +++) | 50 (ILFHGVFYA; listed as Homo sapiens) [compound 50]
++++ (≧75% = ++++) | 51 (LLFSRLCGA; listed as Homo sapiens) [compound 51]
+++ (50%-75% = +++) | 53 (KMVGLVVAI; listed as Homo sapiens) [compound 53]
+++ (50%-75% = +++) | 54 (VLNPLITAV; listed as Homo sapiens) [compound 54]
+++ (50%-75% = +++) | 55 (SLATKIVEA; listed as Homo sapiens) [compound 55]
+++ (50%-75% = +++) | 56 (FLHDEKEGIYI; listed as Homo sapiens) [compound 56]
++ (20%-49% = ++) | 57 (TVFTDHMLTV; listed as Homo sapiens) [compound 57]
+++ (50%-75% = +++) | 58 (YLLPLLPAL; listed as Homo sapiens) [compound 58]
+++ (50%-75% = +++) | 59 (KLLDPQEFTL; listed as Homo sapiens) [compound 59]
+++ (50%-75% = +++) | 60 (ALFAPLVHL; listed as Homo sapiens) [compound 60]
++ (20%-49% = ++) | 61 (AIVKEIVNI; listed as Homo sapiens) [compound 61]
++ (20%-49% = ++) | 62 (ALNPELVQA; listed as Homo sapiens) [compound 62]
++ (20%-49% = ++) | 63 (SQIPAQPSV; listed as Homo sapiens) [compound 63]
++ (20%-49% = ++) | 64 (SLFPDSLIV; listed as Homo sapiens) [compound 64]

Peptide exchange | Substance
++ (20%-49% = ++) | 65 (SVVPDVRSV; listed as Homo sapiens) [compound 65]
+++ (50%-75% = +++) | 66 (KLIFSVEAV; listed as Homo sapiens) [compound 66]
+++ (50%-75% = +++) | 67 (TLLQRLTEV; listed as Homo sapiens) [compound 67]
+++ (50%-75% = +++) | 68 (SLSNRLYYL; listed as Homo sapiens) [compound 68]
+++ (50%-75% = +++) | 69 (FLAVGLVDV; listed as Homo sapiens) [compound 69]
+++ (50%-75% = +++) | 70 (LLLGDSALYL; listed as Homo sapiens) [compound 70]
+++ (50%-75% = +++) | 71 (VLHSKFWVV; listed as Homo sapiens) [compound 71]
+++ (50%-75% = +++) | 72 (FLTAINYLL; listed as Homo sapiens) [compound 72]
++ (20%-49% = ++) | 73 (YTLREVDTV; listed as Homo sapiens) [compound 73]
+++ (50%-75% = +++) | 74 (TLFGYSVVL; listed as Homo sapiens) [compound 74]
+++ (50%-75% = +++) | 75 (AVIKFLELL; listed as Homo sapiens) [compound 75]
++ (20%-49% = ++) | 76 (AVGPVHNSV; listed as Homo sapiens) [compound 76]
+++ (50%-75% = +++) | 77 (TLIDEQDIPLV; listed as Homo sapiens) [compound 77]
++ (20%-49% = ++) | 78 (TVVTRLDEI; listed as Homo sapiens) [compound 78]
++ (20%-49% = ++) | 79 (VTFKEYVTV; listed as Homo sapiens) [compound 79]
++ (20%-49% = ++) | 80 (KLYEADFVL; listed as Homo sapiens) [compound 80]
+++ (50%-75% = +++) | 81 (NALDKVLSV; listed as Homo sapiens) [compound 81]
